# Data as given in PMC12349913 (Biological & pharmaceutical bulletin, 2024).
# Target: full-length Plk1 (Homo sapiens, UniProt P53350)
# Assay: Fluorescence polarization
# Conditions: FP assay, serially diluted full-length protein
# Sequence of full-length Plk1 (P53350 whole entry): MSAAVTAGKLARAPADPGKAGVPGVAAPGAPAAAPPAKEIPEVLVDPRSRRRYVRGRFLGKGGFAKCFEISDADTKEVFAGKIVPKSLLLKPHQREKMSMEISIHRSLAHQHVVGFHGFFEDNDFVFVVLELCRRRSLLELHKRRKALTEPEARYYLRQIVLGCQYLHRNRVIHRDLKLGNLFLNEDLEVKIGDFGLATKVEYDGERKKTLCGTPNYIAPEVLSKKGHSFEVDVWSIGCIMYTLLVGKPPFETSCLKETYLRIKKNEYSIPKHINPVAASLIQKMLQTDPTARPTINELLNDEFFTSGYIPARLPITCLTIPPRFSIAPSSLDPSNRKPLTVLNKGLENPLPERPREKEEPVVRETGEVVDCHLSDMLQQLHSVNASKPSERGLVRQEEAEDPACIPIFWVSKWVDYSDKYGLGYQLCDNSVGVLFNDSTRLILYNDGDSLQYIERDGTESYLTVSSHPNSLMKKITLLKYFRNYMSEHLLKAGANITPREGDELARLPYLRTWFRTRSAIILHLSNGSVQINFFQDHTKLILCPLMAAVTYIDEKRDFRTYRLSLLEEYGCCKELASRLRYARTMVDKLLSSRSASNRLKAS
substance,measurement,value
5-carboxyfluorescein (5CF)-GPMQSpTPLNG-NH2 [5CF-GPMQSpTPLNG-NH2],FP signal response to full-length Plk1,did not show significant FP signal enhancement
